Marks after values point to notes of the source that are not given here.
Columns and labels:
[1] = tested on: Glutathione S-Transferase; experiment: Glutathione S-transferase (GST) activity in tissue cytosol of treated mice, CDNB substrate; type: in vivo, Female A/J mice; details: for Ratio Test/con (GST): gavage; for GST act.: gavage in corn oil
Protocol: The activity of cytosolic was assayed according to the method of Habig et al. using 1-chloro-2,4-dinitrobenzene (CDNB) as the substrate. Habig et al, J. Biol. Chem. 249:7130-7139 (1974). The complete solution contains, in a total volume of 2.0 mL, 0.1 M phosphate buffer, pH 6.5, 5 mM glutathione, 1 mM CDNB, and 20 μL of the cytosol. The reaction was monitored at 340 nm in a Beckman Model DU65 UV-VIS spectrophotometer. Assays were performed at 30° C. Complete assay mixture without the cytosolic enzyme was used as the reference blank. Data as analyzed by the Student's “t” test and P values were obtained in comparison to the control.

[2] = tested on: UDP-Glucuronosyltransferase (UDP-GT); experiment: UDP-glucuronosyltransferase (UDP-GT) activity in liver microsomes of treated mice, o-aminophenol substrate; type: in vivo, Female A/J mice; details: for Ratio Test/con (UDP-GT): gavage; for UDP-GT activity (column head prints GSH conc.): gavage in corn oil
Protocol: Microsomal samples were assayed for enzymatic conjugation by modifying the procedure of Zakim et al., Methods of Biochemical Analysis, ed. David Glick, 21:1-37, (1973). using o-aminophenol as the substrate. The complete assay solution contains, in a total volume of 500 μl, 0.25 M phosphate buffer (pH 7.6), 0.002 M o-aminophenol, 0.05 M UDPGA, 0.125 M magnesium chloride and 100 μl microsomes. The mixture was incubated for 30 minutes. Reactions were stopped by the addition of 500 μl of TCA-sodium phosphate reagent. The precipitated protein was removed, 100 μl of 0.05% sodium nitrite was added to 950 μl of the supernatent solution and allowed to stand for 5 minutes. 100 μl of 0.5% ammonium sulfamate was added, after 5 minutes. 100 μl of 0.12% N-(-1-naphthyl)ethylenediamine dihydrochloride was added and incubated for 2 hours in the dark; and the difference in the optical density between the blanks and the samples were recorded at 555 nm in a Beckman model DU65 UV-VIS spectrophotometer. The UDP-GT activity was calculated using the extinction coefficient 29 mM-1 cm-1 for the coupled product.

aberrant crypts (AC) = experiment: Inhibition of DMH-induced aberrant crypt (AC) formation in colon; type: in vivo, Female CF1 mice; details: with DMH
Excerpt: Precancerous lesions called aberrant crypts (AC) are used as a marker for colon carcinogenesis. Mice and rats, when exposed to colon-specific carcinogen, develop preneoplastic changes in colon crypts which leads to malignancy through dysplasia-carcinoma sequence. […] McLellan et al., Cancer Res. 48:6183-6186 (1988); McLellan et al., Cancer Res. 48:2311-2315 (1988).
The effect of colon-specific carcinogenesis is typically seen in the induction of AC formation in less than two weeks. AC formation is dose dependent and can be quantitated without elaborate instrumentation. In view of the short time-frame required to get quantifiable results, this bio-assay is a useful prescreening tool for the evaluation of chemopreventative efficacy of compounds that are effective against colon cancer. The protocol for aberrant crypts is shown below:
Female CF1 mice, 3 weeks of age, were purchased from Harlan Sprague-Dawley, Indianapolis, 1N. They were housed, 5 mice per cage, in temperature and humidity-controlled animal quarters with 12 hours light/dark cycle and fed AIN 76A semipurified diet until the ent of the experiment. Water was given ad libitim. The animals were separated into experimental and control groups. The test compounds 0.03-0.04 mmol/kg body weight dissolved in 0.3 mL corn oil, were given by gavage one per day for 8 days. One hour after the inhibitors administration on the 4th and 8th days, 0.4 mg of DMH in 0.2 mL of 0.001 M EDTA, adjusted to pH 6.5 with sodium bicarbonate, was given by gavage. Starting on the 9th day, the inhibitors were given once every other day for an additional 3 weeks. This regimen of inhibitor administration ensures the coverage both the initiation and post initiation periods of carcinogen exposure.
At the end of the 3 week period, the animals were sacrificed and the colons removed. The starting and terminating weights of the animals were recorded. The procedures for the determination of aberrant crypts were those reported by Bird (Cancer Letters 37:147-151 (1987)). The mouse colon including the caecum was removed, rinsed with PBS, and opened longitudinally. The colon contents was removed by washing with PBS. The colon was spread mucosal side up on a piece of filter paper and fixed in buffered formalin overnight. It was then stained with 0.2% methylene blue in PBS for 60 min. The AC foci was read under light microscope. The AC are topographically distinguished by their increased size, increased pericryptal zone, and thicker and deeply stained epithelial lining compared to normal crypts. The number of foci and AC in the colorectal and caecal parts of the colon were recorded separately. The significance of the data was determined by the analysis of variance method. The significance of the incidence of aberrant crypts bearing animals was analyzed by the X^2 test. The aberrant crypts were examined histologically to verify the dysplastic nature of the changes in animals treated with carcinogens and those treated with carcinogens and inhibitors.

[3] = colon, dose 0.02 mmol/Kg body weight
[4] = colon, dose 0.04 mmol/Kg body weight
[5] = forestomach, dose 0.02 mmol/Kg body weight
[6] = forestomach, dose 0.04 mmol/Kg body weight
[7] = liver, dose 0.02 mmol/Kg body weight
[8] = liver, dose 0.04 mmol/Kg body weight
[9] = lung, dose 0.02 mmol/Kg body weight
[10] = lung, dose 0.04 mmol/Kg body weight
[11] = small intestinal mucosa, dose 0.02 mmol/Kg body weight
[12] = small intestinal mucosa, dose 0.04 mmol/Kg body weight

N#C[Se]Cc1ccc(C[Se]C#N)s1 [(2) TDMSC, thienyl-2,5-di-methylene selenocyanate]
Ratio Test/con (GST) [1, 3]: 1.00
GST act. [1, 3]: 0.40 ± 0.04 μmol/min mg protein
Ratio Test/con (GST) [1, 4]: 1.00
GST act. [1, 4]: 0.40 ± 0.01 μmol/min mg protein
Ratio Test/con (GST) [1, 5]: 1.15
GST act. [1, 5]: 0.90 ± 0.12 μmol/min mg protein
Ratio Test/con (GST) [1, 6]: 1.15
GST act. [1, 6]: 0.90 ± 0.11 ^g μmol/min mg protein
Ratio Test/con (GST) [1, 7]: 1.27
GST act. [1, 7]: 1.43 ± 0.2 ^g μmol/min mg protein
Ratio Test/con (GST) [1, 8]: 1.12
GST act. [1, 8]: 1.26 ± 0.21 μmol/min mg protein
Ratio Test/con (GST) [1, 9]: 1.04
GST act. [1, 9]: 0.49 ± 0.07 μmol/min mg protein
Ratio Test/con (GST) [1, 10]: 1.15
GST act. [1, 10]: 0.54 ± 0.09 μmol/min mg protein
Ratio Test/con (GST) [1, 11]: 1.03
GST act. [1, 11]: 0.35 ± 0.01 μmol/min mg protein
Ratio Test/con (GST) [1, 12]: 1.18
GST act. [1, 12]: 0.40 ± 0.16 μmol/min mg protein
Ratio Test/con (UDP-GT) ([2]; dose 0.02 mmol/Kg body weight): 1.58
UDP-GT activity (column head prints GSH conc.) ([2]; dose 0.02 mmol/Kg body weight): 7.00 ± 1.07 ^c nmol/min/mg protein
Ratio Test/con (UDP-GT) ([2]; dose 0.04 mmol/Kg body weight): 2.81
UDP-GT activity (column head prints GSH conc.) ([2]; dose 0.04 mmol/Kg body weight): 12.44 ± 2.31 ^c nmol/min/mg protein
Ratio Test/con (UDP-GT) ([2]; dose 0.04 mmol/Kg body weight, listed as TDMSC 2): 3.0
ACF/Colon (aberrant crypts (AC); low dose 0.03 mmol/kg body weight, gavage, DMH alone 1.13): 0.50
AC/Foci (aberrant crypts (AC); low dose 0.03 mmol/kg body weight, gavage, DMH alone 1.28): 1.00
AC/Colon (aberrant crypts (AC); low dose 0.03 mmol/kg body weight, gavage, DMH alone 1.44): 0.50
Total ACF (aberrant crypts (AC); low dose 0.03 mmol/kg body weight, gavage, DMH alone 18): 4
Total AC (aberrant crypts (AC); low dose 0.03 mmol/kg body weight, gavage, DMH alone 23): 4
% animals (aberrant crypts (AC); low dose 0.03 mmol/kg body weight, gavage, DMH alone 43.7): 24.0%
protection (inhibition of aberrant crypt formation) (aberrant crypts (AC); low dose): more than 50%
